US20250275539A1, “APYRASE INHIBITORS” (Texas Crop Science, Inc., priority 2024, published 2025)
Like-named read-outs stand apart in the source and are kept apart here.

Assays:
[1] = tested on: Amaranthus retroflexus (pigweed); assay: Enhancement of herbicide activity: pre-emergence Amaranthus kill with metribuzin; format: in vivo; conditions: for pest or weed control at 100 g/ha: Amaranthus retroflexus; for enhancement of metribuzin herbicidal activity: compound at 100 g/ha with metribuzin, at seven and fourteen days
Protocol: Specifically, Amaranthus retroflexus (pigweed) was treated pre-emergence with metribuzin alone or in combination with an enhancer compound disclosed herein. Fifteen seeds of Amaranthus retroflexus were sown in soil in each pot and then sprayed with a mixture of metribuzin at the appropriate rate shown in Table 5 and the compound of this invention at 100 g/ha using a track sprayer at a water volume of 200 L/hectare. Small amounts of acetone were used to aid solubility. The pots were watered immediately after sowing and treatment and then allowed to stand in a glasshouse. Assessment of kill was made seven and fourteen days after treatment. The test included four replicates for each treatment and the control.

[2] = tested on: apyrase; assay: Apyrase inhibition assay (screen for apyrase inhibitors, phosphate release read at 630 nm); format: biochemical; conditions: inhibitor conc at 1 mM (10 μl added), 3 mM ATP, pH 6.5, room temperature 1 hr
[3] = tested on: Brown Rust (Puccinia recondita) on wheat; assay: Greenhouse crop test: control of Brown Rust on wheat in combination with commercial fungicides; format: in vivo; conditions: wheat JB Diego, inoculated 24 hours after treatment, evaluated at fourteen days; for Amistar (% control of the disease, compound + fungicide): with Amistar 0.04 L/ha; for Balaya (% control of the disease, compound + fungicide): with Balaya 0.25 L/ha; for Imtrex (% control of the disease, compound + fungicide): with Imtrex 0.45 L/ha; for Proline (% control of the disease, compound + fungicide): with Proline 0.15 L/ha
Protocol: In this method, exemplary compounds were evaluated for their ability to control Brown Rust (Puccinia recondita) on wheat in a controlled greenhouse environment in combination with one of four fungicides, Amistar, Imtrex, Proline or Balaya. In these studies, wheat plants (JB Diego) were used. Seeds were sown in 9 cm diameter pots to a depth of 1 to 2 cm using Petersfield potting compost (75% medium grade peat, 12% screened sterilized loam, 3% medium grade vermiculite, 10% grit (5 mm screened, lime free), 1.5 kg PG mix per m3, lime to pH5.5-6.0 and wetting agent (Vitax Ultrawet 200 ml per m3) and germinated/grown at 23 C under a 16 h day/8 h night light regime. Plants were treated two to three weeks after sowing when they were at the BBCH 11 growth stage ([…]). Wheat plants were inoculated with Puccinia triticina (Brown rust) 24 hours after treatment. A track sprayer was used to treat the plants with the mixture of commercial fungicide and test compound using a water volume of 200 L/ha. Four replicates were used for each combination of fungicide, pathogen and test compound. Each plant was evaluated at fourteen days (once the disease symptoms were fully expressed) for % control of the disease. Appropriate controls were used for all experiments, including an ‘inoculation check’ wherein plants were inoculated with their specific pathogen to assess disease levels. Also, each commercial fungicide was tested on its own as a part of each treatment, this being benchmark against which the experimental compounds were evaluated. […] That is, the present compounds, although not fungicidal by themselves, enhance the activity of fungicides, thus the enhancer compounds work synergistically in combination with fungicides to control disease. • Amistar (0.04 L/ha) • Imtrex (0.45 L/ha) • Proline (0.15 L/ha) • Balaya (0.25 L/ha)

[4] = 168 h, read-out: Pre-Emergence Amaranthus Kill Percentage, Assessed 7 DAT, Metribuzin rate 50 g/ha
[5] = 168 h, read-out: Pre-Emergence Amaranthus Kill Percentage, Assessed 7 DAT, Metribuzin rate 100 g/ha
[6] = 168 h, read-out: Pre-Emergence Amaranthus Kill Percentage, Assessed 7 DAT, Metribuzin rate 200 g/ha
[7] = 336 h, read-out: Pre-Emergence Amaranthus Kill Percentage, Assessed 14 DAT, Metribuzin rate 50 g/ha
[8] = 336 h, read-out: Pre-Emergence Amaranthus Kill Percentage, Assessed 14 DAT, Metribuzin rate 100 g/ha
[9] = 336 h, read-out: Pre-Emergence Amaranthus Kill Percentage, Assessed 14 DAT, Metribuzin rate 200 g/ha

Compound	pest or weed control at 100 g/ha [1, 4]	pest or weed control at 100 g/ha [1, 5]	pest or weed control at 100 g/ha [1, 6]	pest or weed control at 100 g/ha [1, 7]	pest or weed control at 100 g/ha [1, 8]	pest or weed control at 100 g/ha [1, 9]	enhancement of metribuzin herbicidal activity [1]	Inhibition [2]	Amistar (% control of the disease, compound + fungicide) [3]	Balaya (% control of the disease, compound + fungicide) [3]	Imtrex (% control of the disease, compound + fungicide) [3]	Proline (% control of the disease, compound + fungicide) [3]
Cc1cccc(NS(=O)(=O)c2ccc(CCC(=O)O)cc2)c1 [Compound A-103, 3-(4-(N-(m-tolyl)sulfamoyl)phenyl) propanoic acid]	5.1%	54.7%	91.5%	30.6%	43.1%	98.4%	significant enhancement	B (B is inhibition from 20% to 30%)	37.0%	67.2%	13.2%	4.4%
Cc1cccc(NS(=O)(=O)c2ccc(C(C)C)cc2)c1 [Compound A-59, 4-isopropyl-N-(m-tolyl)benzenesulfonamide]	14.3%	64.6%	95%	25.9%	67.3%	100%	significant enhancement	A (A is inhibition above 30%)	95.0%	50.0%	30.9%	15.6%
COc1cccc(NS(=O)(=O)c2ccc(-c3ccc(C)cc3)cc2)c1 [Compound A-34, N-(3-methoxyphenyl)-4′-methyl-[1,1′-biphenyl]-4-sulfonamide]	28.3%	70.5%	100%	37.3%	77.8%	100%	significant enhancement	A (A is inhibition above 30%)	51.9%	48.3%	34.5%	3.8%
COc1cccc(NS(=O)(=O)c2ccc(-c3ccccc3)cc2)c1 [Compound A-3, N-(3-methoxyphenyl)-[1,1′-biphenyl]-4-sulfonamide]	15.6%	68.9%	34%	21.7%	72%	38.5%	significant enhancement	A (A is inhibition above 30%)	81.4%	38.9%	47.6%	3.8%
O=S(=O)(Nc1ccc2c(c1)CCCN2)c1ccc(-c2ccccc2)cc1 [Compound A-99, N-(1,2,3,4-tetrahydroquinolin-6-yl)-[1,1′-biphenyl]-4-sulfonamide]	–	–	–	–	–	–	–	A (A is inhibition above 30%)	71.4%	84.1%	16.1%	5.7%
Cc1ccc(C(=O)N(C)C)cc1NS(=O)(=O)c1ccc(-c2ccccc2)cc1 [Compound A-108, 3-([1,1′-biphenyl]-4-sulfonamido)-N,N,4-trimethylbenzamide]	6.3%	76.5%	100%	13.5%	78.8%	100%	significant enhancement	A (A is inhibition above 30%)	92.1%	31.7%	40.5%	−1.2%
O=S(=O)(Nc1cccc(C(F)(F)F)c1)c1cnc(-c2ccccc2)nc1 [Compound A-37, 2-phenyl-N-(3-(trifluoromethyl)phenyl)pyrim-idine-5-sulfonamide]	–	–	–	–	–	–	–	B (B is inhibition from 20% to 30%)	58.7%	78.0%	12.7%	−1.2%
Cc1ccnc(NS(=O)(=O)c2ccc(CC#N)cc2)n1 [Compound A-21, 4-(cyanomethyl)-N-(4-methylpyrimidin-2-yl)benzenesulfonamide]	0%	62.3%	100%	4.4%	63%	100%	significant enhancement	A (A is inhibition above 30%)	48.5%	39.0%	47.7%	1.2%
O=C1Cc2cc(NS(=O)(=O)c3ccc(-c4ccccc4)cc3)ccc2N1 [Compound A-8, N-(2-oxoindolin-5-yl)-[1,1′-biphenyl]-4-sulfonamide]	12.8%	28.6%	100%	18.8%	35.7%	100%	significant enhancement	A (A is inhibition above 30%)	72.9%	77.2%	47.8%	13.3%
Cc1ccc(C)c(NS(=O)(=O)c2ccc(-c3ccccc3)cc2)c1 [Compound A-5, N-(2,5-dimethylphenyl)-[1,1′-biphenyl]-4-sulfonamide]	–	–	–	–	–	–	–	A (A is inhibition above 30%)	89.2%	13.0%	24.3%	15.1%
Cc1ccccc1NS(=O)(=O)c1ccc(-c2ccccc2)cc1 [Compound A-9, N-(o-tolyl)-[1,1′-biphenyl]-4-sulfonamide]	–	–	–	–	–	–	–	A (A is inhibition above 30%)	65.5%	54.9%	−13.9%	12.4%
O=S(=O)(Nc1ccc(-c2nncs2)cc1)c1ccc(-c2ccccc2)cc1 [Compound A-29, N-(4-(1,3,4-thiadiazol-2-yl)phenyl)-[1,1′-biphenyl]-4-sulfonamide]	13.2%	66.7%	87.7%	17.1%	71.4%	90%	significant enhancement	A (A is inhibition above 30%)	67.0%	59.5%	60.1%	18.7%
